One experiment deals with Human immunodeficiency virus type 1 protease (Human immunodeficiency virus 1, UniProt Q72874). Nature of the experiment: Inhibition of HIV-1 Protease.
Details: not given
With `CC(C)(C)NC(=O)[C@@H]1C[C@@H]2CCCC[C@@H]2CN1C[C@@H](O)[C@H](Cc1ccccc1)NC(=O)[C@@H]1CCCSC1`, the IC50 amounted to 78.4 nM.

In turn, `CC(C)(C)NC(=O)[C@@H]1C[C@@H]2CCCC[C@@H]2CN1C[C@@H](O)[C@H](Cc1ccccc1)NC(=O)[C@H]1CCCSC1` registered a 50% inhibitory concentration (IC50) of 98.8 nM.

`CC(C)(C)NC(=O)[C@@H]1C[C@@H]2CCCC[C@@H]2CN1C[C@@H](O)[C@H](Cc1ccccc1)NC(=O)[C@@H]1CCS(=O)(=O)C1`: the IC50 stood at 200 nM.

As for `CC(C)(C)NC(=O)[C@@H]1C[C@@H]2CCCC[C@@H]2CN1C[C@@H](O)[C@H](Cc1ccccc1)NC(=O)[C@@H]1CCSC1`, inhibition was half-maximal at 342 nM (IC50).

As to `CC(C)(C)NC(=O)[C@@H]1C[C@@H]2CCCC[C@@H]2CN1C[C@@H](O)[C@H](Cc1ccccc1)NC(=O)C1=CCCSC1`, the IC50 stood at 167 nM.

For the compound `CC(C)(C)NC(=O)[C@@H]1C[C@@H]2CCCC[C@@H]2CN1C[C@@H](O)[C@H](Cc1ccccc1)NC(=O)[C@H]1CCS(=O)(=O)C1`, half-maximal inhibition (IC50) required 193 nM.

For the compound `CC(C)(C)NC(=O)[C@@H]1C[C@@H]2CCCC[C@@H]2CN1C[C@@H](O)[C@H](Cc1ccccc1)NC(=O)C1=CCCS(=O)(=O)C1`, the IC50 is 54.7 nM. Against the preceding compound, the IC50 is about 3.5-fold lower.

Compound `CC(C)(C)NC(=O)[C@@H]1C[C@@H]2CCCC[C@@H]2CN1C[C@@H](O)[C@H](Cc1ccccc1)NC(=O)[C@H]1CCSC1` showed an IC50 of 650 nM.

Compound `CC(C)(C)NC(=O)[C@@H]1C[C@@H]2CCCC[C@@H]2CN1C[C@@H](O)[C@H](Cc1ccccc1)NC(=O)[C@@H]1CCCS(=O)(=O)C1` came in with a 50% inhibitory concentration (IC50) of 9.2 nM.

With `CC(C)(C)NC(=O)[C@@H]1C[C@@H]2CCCC[C@@H]2CN1C[C@@H](O)[C@H](Cc1ccccc1)NC(=O)[C@H]1CCCS(=O)(=O)C1`, it took 23.5 nM to reach half-maximal inhibition (IC50).

Another experiment deals with MT4. Nature of the experiment: Inhibitory activity against HIV-1 in MT-4 lymphoid cells infected with IIIb. The experiment is classed as functional. The conditions noted are these: Homo sapiens, read-out: CIC95.
Regarding `CC(C)(C)NC(=O)[C@@H]1C[C@@H]2CCCC[C@@H]2CN1C[C@@H](O)[C@H](Cc1ccccc1)NC(=O)[C@@H]1CCCS(=O)(=O)C1`, the IC95 was found to be 200 nM.

With `CC(C)(C)NC(=O)[C@@H]1C[C@@H]2CCCC[C@@H]2CN1C[C@@H](O)[C@H](Cc1ccccc1)NC(=O)[C@H]1CCCS(=O)(=O)C1`, the IC95 worked out at 400 nM.

The IC50 is the midpoint of a concentration-inhibition curve.

(Values after ChEMBL document CHEMBL1128144, “Cyclic sulfone-3-carboxamides as novel P2-ligands for Ro 31-8959 based HIV-1 protease inhibitors” (Bioorg Med Chem Lett, 1995).)
